# Test results from patent US11072634B2, “Inhibitors of transglutaminases” (Zedira GmbH, priority 2016, dated 2021).
# *1 amine or outer side, *2 acyl side, *3 side chain or, on linkers, in order; H or OH if unused. Where a SMILES comes first, the peptide text is derived from it. [ ]: non-standard residue; d: D form. The star is where a group is joined. Nle(5,6-dioxo,6-NHMe) = CNC(=O)C(=O)CC[C@H](N)C(=O)O; X7 = O=C(CC[C@H](N[*:1])C(=O)[*:2])C(=O)NCc1ccccc1; Isonicotinoyl(3-COOH) = O=C(O)c1cnccc1C(=O)*; X6 = CCNC(=O)C(=O)CC[C@H](N[*:1])C(=O)[*:2]; X5 = NC(=O)C(=O)CC[C@H](N[*:1])C(=O)[*:2]; Pro(4-oxo) = O=C1CN[C@H](C(=O)O)C1; Chg = N[C@H](C(=O)O)C1CCCCC1; Tle = CC(C)(C)[C@H](N)C(=O)O; Nle = CCCC[C@H](N)C(=O)O
# Tests used:
# [1] = biological target: T1, recombinant human factor XIII A-subunit (rhFXIII-A, plasma transglutaminase) (Homo sapiens, UniProt P00488); experiment: Inhibition of rec. human coagulation factor XIII (fluorescence, Abz-NE(CAD-DNP)EQVSPLILLK-OH); assay type: biochemical; conditions: Table 3, FXIII inhibitors; read-out: IC50 FXIII
# T1 construct: His6; purchased Zedira 1027 (so in the source); T027)
# T1 sequence (P00488 39-732 limits assumed): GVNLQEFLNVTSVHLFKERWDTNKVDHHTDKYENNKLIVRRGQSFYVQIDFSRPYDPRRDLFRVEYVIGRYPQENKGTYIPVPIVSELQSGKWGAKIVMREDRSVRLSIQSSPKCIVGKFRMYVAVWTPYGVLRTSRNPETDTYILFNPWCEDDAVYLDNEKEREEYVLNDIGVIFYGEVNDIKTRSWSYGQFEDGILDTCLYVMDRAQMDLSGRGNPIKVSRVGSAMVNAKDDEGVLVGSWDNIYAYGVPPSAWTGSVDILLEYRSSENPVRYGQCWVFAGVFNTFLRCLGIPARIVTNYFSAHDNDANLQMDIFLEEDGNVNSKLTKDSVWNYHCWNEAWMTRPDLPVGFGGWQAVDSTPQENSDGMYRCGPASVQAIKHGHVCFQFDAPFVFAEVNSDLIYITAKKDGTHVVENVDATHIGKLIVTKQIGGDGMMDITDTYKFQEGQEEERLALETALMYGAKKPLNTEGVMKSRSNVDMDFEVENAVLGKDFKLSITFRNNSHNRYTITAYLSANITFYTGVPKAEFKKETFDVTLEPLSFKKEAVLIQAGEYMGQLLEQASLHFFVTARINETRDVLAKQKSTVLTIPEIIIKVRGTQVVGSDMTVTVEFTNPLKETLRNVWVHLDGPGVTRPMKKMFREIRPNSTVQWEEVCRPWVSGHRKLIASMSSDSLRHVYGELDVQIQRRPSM
# Method: Method for Inhibition Studies of Rec. Human Coagulation Factor XIII (Plasma Transglutaminase, rhFXIII-A)
# (§1) 50 μg lyophilized His-tagged recombinant human factor XIII A-subunit (His6-rhFXIII, Zedira product 1027) is reconstituted in H2O (volume depends on original volume before lyophilization) resulting in a buffer containing 20 mM Tris-HCl, 150 mM NaCl, 1 mM EDTA, 1 mM DTT, 189 mg/ml maltodextrin, pH=7.5. The rhFXIII stock solution is diluted in buffer (50 mM Tris-HCl, 7.5 mM CaCl2, 150 mM NaCl, pH=7.4) to give a working solution of 59 U/ml (based on the amine-incorporation activity measured using transglutaminase activity assay #1036 (Zedira GmbH), described below).
# (§2) A 10 mM inhibitor stock solution is prepared in DMSO, and from this a serial 1:2-fold dilution series is prepared also in DMSO. Each of the initial dilutions is subsequently diluted 1:50-fold with buffer (50 mM Tris-HCl, 7.5 mM CaCl2, 150 mM NaCl, pH=7.4) to yield the final working dilutions containing 2% (v/v) DMSO.
# (§3) 15 μl of inhibitor working dilution are added per well of a 96 well microtiter plate. As control, 15 μl of a 2% (v/v) DMSO solution prepared using the buffer mentioned above are added per well.
# (§4) 480 μl of His6-rhFXIII working solution and 120 μl human alpha thrombin (0.5 NIH units/μl) are added to 10.8 ml assay buffer (50 mM Tris-HCl, 7.5 mM CaCl2, 150 mM NaCl, 5 mM DTT, 13.4 mM glycine methylester, 50 μM Abz-NE(CAD-DNP)EQVSPLILLK-OH, (Zedira product A101; patent No.: EP 1781807B1), pH=7.4). From this master-mix solution, 285 μl are added per well containing the inhibitor. Increase in fluorescence is measured using […] and λem=418 nm at 37° C. for 35 min. A slope of the increase in fluorescence between 20 and 30 min is calculated for determination of the IC50 value (inhibitor concentration at which 50% of the initial FXIII activity is blocked).
# (§5) Analysis of enzymatic activity is performed by calculation of the slope of an increase in fluorescence intensity. IC50 values are calculated by plotting the enzymatic activity (as percentage from control containing 2% DMSO instead of inhibitor) against the inhibitor concentration. IC50 is defined as the inhibitor concentration blocking 50%) of initial enzyme activity.
# TG2 = biological target: T2, TG2 (Homo sapiens, UniProt P21980); experiment: FXIII assay format using TG2 instead of FXIII (selectivity of FXIIIa blockers); assay type: biochemical; conditions: Table 3, selectivity with respect to TG2; read-out: IC50 TG2
# T2 sequence (P21980 1-687): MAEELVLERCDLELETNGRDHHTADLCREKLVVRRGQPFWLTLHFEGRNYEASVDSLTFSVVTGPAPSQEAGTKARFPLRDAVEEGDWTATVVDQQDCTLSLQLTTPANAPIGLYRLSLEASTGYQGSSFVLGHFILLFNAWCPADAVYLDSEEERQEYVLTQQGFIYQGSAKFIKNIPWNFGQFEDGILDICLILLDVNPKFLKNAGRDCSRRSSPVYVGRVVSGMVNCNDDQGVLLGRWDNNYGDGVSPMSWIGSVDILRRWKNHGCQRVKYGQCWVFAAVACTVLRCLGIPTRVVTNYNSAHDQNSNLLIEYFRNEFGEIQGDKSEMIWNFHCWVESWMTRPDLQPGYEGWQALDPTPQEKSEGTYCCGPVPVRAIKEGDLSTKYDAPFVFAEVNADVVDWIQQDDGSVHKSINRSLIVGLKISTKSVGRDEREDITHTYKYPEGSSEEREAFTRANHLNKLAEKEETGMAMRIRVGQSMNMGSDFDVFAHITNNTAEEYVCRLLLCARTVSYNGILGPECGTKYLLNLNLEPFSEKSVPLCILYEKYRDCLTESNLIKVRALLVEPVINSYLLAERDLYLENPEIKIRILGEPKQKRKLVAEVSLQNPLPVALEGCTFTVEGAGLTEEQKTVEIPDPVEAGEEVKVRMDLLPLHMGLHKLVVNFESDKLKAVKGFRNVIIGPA
# Method: as §1, §2, §3, §4
# This assay was also used to determine selectivity of inhibitors preferentially blocking FXIIIa by using TG2 instead of FXIII.
# as §5
Structure (SMILES),IC50 [1] [nM],IC50 (TG2) [nM]
"CCCC[C@H](NC(=O)[C@H](CCC(=O)C(N)=O)NC(=O)[C@H](CC(=O)O)NC(C)=O)C(=O)N[C@@H](CCCC)C(=O)N[C@@H](CC(C)C)C(=O)N1CCC[C@H]1C(=O)N[C@@H](Cc1c[nH]c2ccccc12)C(=O)N1CCC[C@H]1C(=O)O [Compound E08, (S)-1-((S)-2-((S)-1-((4R,7S,10S,13S,16S)-7-(4-amino-3,4-dioxobutyl)-10, -dibutyl-4-(carboxymethyl)-18-methyl-2,5,8,11,14-pentaoxo-3,6,9,12,15-pentaazanonadecanecarbonyl)pyrrolidine-2-carboxamido)-3-(1H-indol-3-yl)propanoyl)pyrrolidine-2-carboxylic acid] (Ac-D[X5][Nle][Nle]LPWP-OH)",150,100
"CCCC[C@H](NC(=O)[C@H](CCC(=O)C(=O)NC)NC(=O)CNC(=O)[C@@H]1CCCN1C(C)=O)C(=O)N[C@H](C(=O)N[C@@H](CC(C)C)C(=O)N1CCC[C@H]1C(=O)N[C@@H](Cc1c[nH]c2ccccc12)C(N)=O)[C@@H](C)CC [Compound E35, (S)-2-(2-((S)-1-acetylpyrrolidine-2-carboxamido)acetamido)-N1-((S)-1-((2S,3S)-1-((S)-1-((S)-2-((S)-1-amino-3-(1H-indol-3-yl)-1-oxopropan-2-ylcarbamoyl)pyrrolidin-1-yl)-4-methyl-1-oxopentan-2-ylamino)-3-methyl-1-oxopentan-2-ylamino)-1-oxohexan-2-yl)-N6-methyl-5-oxohexanediamide] (Ac-PG[Nle(5,6-dioxo,6-NHMe)][Nle]ILPW-NH2)",1950,525
"CC(C)(C)[C@H](NC(=O)[C@H](CCC(=O)C(N)=O)NC(=O)c1ccncc1C(=O)O)C(=O)N1CC(=O)C[C@H]1C(=O)N[C@H](C(=O)N[C@H](C(N)=O)C1CCCCC1)C1CCCCC1 [Compound E31, 4-((S)-6-amino-1-((S)-1-((S)-2-((S)-2-((S)-2-amino-1-cyclohexyl-2-oxoethylamino)-1-cyclohexyl-2-oxoethylcarbamoyl)-4-oxopyrrolidin-1-yl)-3,3-dimethyl-1-oxobutan-2-ylamino)-1,5,6-trioxohexan-2-ylcarbamoyl)nicotinic acid] ({Isonicotinoyl(3-COOH)}-[X5][Tle][Pro(4-oxo)][Chg][Chg]-NH2)",5000,> 20000
"CCCC[C@H](NC(=O)[C@H](CCC(=O)C(=O)NC)NC(=O)CNC(=O)[C@@H]1CCCN1C(=O)CNC(C)=O)C(=O)N[C@H](C(=O)N[C@@H](CC(C)C)C(=O)N1CCC[C@H]1C(=O)N[C@@H](Cc1c[nH]c2ccccc12)C(N)=O)[C@@H](C)CC [Compound E36, (S)-2-(2-((S)-1-(2-acetamidoacetyl)pyrrolidine-2-carboxamido)acetamido)-N1-((S)-1-((2S,3S)-1-((S)-1-((S)-2-((S)-1-amino-3-(1H-indol-3-yl)-1-oxopropan-2-ylcarbamoyl)pyrrolidin-1-yl)-4-methyl-1-oxopentan-2-ylamino)-3-methyl-1-oxopentan-2-ylamino)-1-oxohexan-2-yl)-N6-methyl-5-oxohexanediamide] (Ac-GPG[Nle(5,6-dioxo,6-NHMe)][Nle]ILPW-NH2)",3100,800
"CCNC(=O)C(=O)CC[C@H](NC(=O)c1ccncc1C(=O)O)C(=O)N[C@H](C(=O)N1CC(=O)C[C@H]1C(=O)N[C@H](C(=O)N[C@H](C(N)=O)C1CCCCC1)C1CCCCC1)C(C)(C)C [Compound E26, 4-((S)-1-((S)-1-((S)-2-((S)-2-((S)-2-amino-1-cyclohexyl-2-oxoethylamino)-1-cyclohexyl-2-oxoethylcarbamoyl)-4-oxopyrrolidin-1-yl)-3,3-dimethyl-1-oxobutan-2-ylamino)-6-(ethylamino)-1,5,6-trioxohexan-2-ylcarbamoyl)nicotinic acid] ({Isonicotinoyl(3-COOH)}-[X6][Tle][Pro(4-oxo)][Chg][Chg]-NH2)",320,10800
"CCCC[C@H](NC(=O)[C@H](CCC(=O)C(=O)NC)NC(=O)CNC(=O)[C@@H]1CCCN1C(=O)CNC(=O)[C@H](CC(C)C)NC(C)=O)C(=O)N[C@H](C(=O)N[C@@H](CC(C)C)C(=O)N1CCC[C@H]1C(=O)N[C@@H](Cc1c[nH]c2ccccc12)C(N)=O)[C@@H](C)CC [Compound E37, (S)-2-(2-((S)-1-(2-((S)-2-acetamido-4-methylpentanamido)acetyl)pyrrolidine-2-carboxamido)acetamido)-N1-((S)-1-((2S,3S)-1-((S)-1-((S)-2-((S)-1-amino-3-(1H-indol-3-yl)-1-oxopropan-2-ylcarbamoyl)pyrrolidin-1-yl)-4-methyl-1-oxopentan-2-ylamino)-3-methyl-1-oxopentan-2-ylamino)-1-oxohexan-2-yl)-N6-methyl-5-oxohexanediamide] (Ac-LGPG[Nle(5,6-dioxo,6-NHMe)][Nle]ILPW-NH2)",2500,390
"CCCC[C@H](NC(=O)[C@H](CCC(=O)C(=O)NC)NC(=O)CNC(C)=O)C(=O)N[C@H](C(=O)N[C@@H](CC(C)C)C(=O)N1CCC[C@H]1C(=O)N[C@@H](Cc1c[nH]c2ccccc12)C(N)=O)[C@@H](C)CC [Compound E34, (S)-2-(2-acetamidoacetamido)-N1-((S)-1-((2S,3S)-1-((S)-1-((S)-2-((S)-1-amino-3-(1H-indol-3-yl)-1-oxopropan-2-ylcarbamoyl)pyrrolidin-1-yl)-4-methyl-1-oxopentan-2-ylamino)-3-methyl-1-oxopentan-2-ylamino)-1-oxohexan-2-yl)-N6-methyl-5-oxohexanediamide] (Ac-G[Nle(5,6-dioxo,6-NHMe)][Nle]ILPW-NH2)",2450,200
"CC(C)(C)[C@H](NC(=O)[C@H](CCC(=O)C(=O)NCc1ccccc1)NC(=O)c1ccncc1C(=O)O)C(=O)N1CC(=O)C[C@H]1C(=O)N[C@H](C(=O)N[C@H](C(N)=O)C1CCCCC1)C1CCCCC1 [Compound E29, 4-((S)-1-((S)-1-((S)-2-((S)-2-((S)-2-amino-1-cyclohexyl-2-oxoethylamino)-1-cyclohexyl-2-oxoethylcarbamoyl)-4-oxopyrrolidin-1-yl)-3,3-dimethyl-1-oxobutan-2-ylamino)-6-(benzylamino)-1,5,6-trioxohexan-2-ylcarbamoyl)nicotinic acid] ({Isonicotinoyl(3-COOH)}-[X7][Tle][Pro(4-oxo)][Chg][Chg]-NH2)",850,> 20000
